Results on one compound are retold here after US8835467B2, “SIR2 regulation” (Albert Einstein College of Medicine of Yeshiva University, priority 2003, dated 2014).

For one assay, the target named is Yeast Sir2 (Saccharomyces cerevisiae, UniProt P06700). Description: Sir2 catalyzed base exchange with H4 N-terminal peptide. Type of assay: biochemical. The protocol:
Measurements were performed by methods described in Sauve and Schramm (2003) with the H4N-terminal peptide (AGG(AcK)GG(AcK)GMG(AcK)VGA(AcK)RHSC) (Imai et al., 2000) as substrate.

The test system of assay [1] is Sir2-dependent transcriptional silencing at the silent mating-type loci (HMR, HML). Description: Silent mating-type locus reporter silencing, spot assay. The class given is cell-based, yeast. As to the method: (§1) The photographs were taken after 2 to 3 days incubation. […] Isogenic strains UCC4562 (DOT1) and UCC4554 (dot1Δ) (Singer et al., 1998) are shown in each panel (top and bottom rows, respectively). […] The phenotype of strain CCFY10028 (top row) is compared to an isogenic sir2 derivative (bottom row). The sir2 deletion strain was generated by PCR-mediated gene disruption using a Nat-MX selectable marker (Tong et al., 2004).
(§2) The deletion strains were generated by PCR-mediated gene disruption using a Nat-MX selectable marker (Tong et al., 2004). Silencing at TEL-VR::URA3 is reported by survival on FOA-containing media and at HMR::TRP1 is detected by reduced growth on media lacking tryptophan.
The effect of isonicotinamide on Sir2 activity at the silent mating-type loci was measured in an HMR: TRP1 strain by growth on medium lacking tryptophan (FIG. 8b). Silencing of TRP1 decreases growth on Trp^− media.

The subject of assay [2] is Sir2-dependent transcriptional silencing at telomeres. Description: Telomeric reporter gene silencing, serial dilution spot assay. The class given is cell-based, yeast. The protocol:
as §1, §2
We examined the effect of isonicotinamide on the expression of reporter genes integrated at each of the chromosomal loci that are subject to Sir2-dependent transcriptional silencing. Silencing of a telomeric URA3 gene (TEL-VIIL-URA3) confers resistance to 5-fluoroorotic acid (5-FOA). […] In this strain, silencing is reduced by dispersion of the Sir proteins from the telomeres (van Leeuwen et al., 2002).
For orientation: Reporter assays use an easily measured gene product as a stand-in for the process of interest.

Chain of Yeast Sir2 (P06700 whole entry): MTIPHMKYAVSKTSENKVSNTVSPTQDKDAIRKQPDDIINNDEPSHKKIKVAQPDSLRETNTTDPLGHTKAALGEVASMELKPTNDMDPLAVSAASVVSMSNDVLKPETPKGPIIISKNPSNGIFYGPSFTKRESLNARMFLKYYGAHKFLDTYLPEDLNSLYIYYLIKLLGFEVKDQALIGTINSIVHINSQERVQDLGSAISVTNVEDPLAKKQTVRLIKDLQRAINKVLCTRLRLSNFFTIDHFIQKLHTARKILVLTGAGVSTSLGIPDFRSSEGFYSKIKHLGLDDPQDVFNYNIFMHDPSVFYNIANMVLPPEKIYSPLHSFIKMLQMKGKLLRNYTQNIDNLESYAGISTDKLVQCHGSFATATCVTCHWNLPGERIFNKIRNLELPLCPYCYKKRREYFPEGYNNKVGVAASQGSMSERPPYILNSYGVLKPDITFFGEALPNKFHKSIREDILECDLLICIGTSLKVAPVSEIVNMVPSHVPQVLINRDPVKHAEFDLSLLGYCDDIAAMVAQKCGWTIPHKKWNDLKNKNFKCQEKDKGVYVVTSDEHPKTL

In general, Ki refers to a measure of affinity in units of concentration, obtained from inhibition or displacement. On to `NC(=O)c1ccncc1` [Isonicotinamide], for which, on Yeast Sir2 (125 μM [carbonyl-14C]nicotinamide, increasing isonicotinamide), the “effect on base exchange” value is “Base exchange is inhibited”. In addition, on Yeast Sir2 (read-out: Ki for isonicotinamide), the Ki amounted to 60 mM. In assay [1] (HML::URA3 strains UCC3515 and UCC4574, FOA-containing medium, data not shown), the “Sir2 activity at HML” value is given as “increased Sir2 activity at HML”. Further, the “growth phenotype of isogenic sir2Δ strain” value in assay [1] (HMR::TRP1, Trp− medium) was “Neither compound altered the growth phenotype”. For the same compound, the “reduction in growth on Trp− medium” value in assay [1] (HMR::TRP1, pnc1Δ strain, 25 mM isonicotinamide) is reported as 10^3 fold. The “increase in colony growth on FOA-containing medium” value in assay [2] (TEL-VIIL-URA3, DOT1 strain UCC4562, 25 mM isonicotinamide) is reported as approximately 10 fold; in assay [2] (TEL-VR-URA3, pnc1Δ strain, 25 mM isonicotinamide), > 10^4 fold. The “enhanced silencing of telomeric reporter (growth on FOA)” value in assay [2] (TEL-VIIL-URA3, dot1Δ strain UCC4554, 25 mM isonicotinamide) is listed as > 10^3 fold. Also, in assay [2] (TEL-VIIL-URA3, 25 mM isonicotinamide added to medium with 5 mM nicotinamide), the “growth phenotype on FOA medium” value is “intermediate growth phenotype”. The “colony survival on non-selective medium” value in assay [2] (YPD control medium, 25 mM isonicotinamide) is recorded as “no effect”. Also, the “silencing of ADE2 integrated at TEL-VR” value in assay [2] (data not shown) is listed as “increased”. Besides, in assay [2] (npt1Δ strain, 25 mM isonicotinamide), the “effect on telomeric reporter gene” value is given as “enhances the expression of a telomeric reporter gene”.
